Measured values taken from patent US20210236442A1, “METHODS FOR DELAYING OCCURRENCE OF NEW-ONSET TYPE 2 DIABETES AND FOR SLOWING PROGRESSION OF AND TREATING TYPE 2 DIABETES” (Dalcor Pharma UK Ltd., Leatherhead, Zug Branch, priority 2018, published 2021).

Legend:
Type in all cases: in vivo, human
[1] = system: patients enrolled in the dal-OUTCOMES trial; assay: Cox proportional hazards regression of diabetes for association with cardiovascular events per rs1967309 genotype and treatment arm (dal-OUTCOMES); settings: for Event (cardiovascular events) / HR (diabetes, cardiovascular events) / β diabetes (cardiovascular events): dalcetrapib arm
Text: Inclusion Criteria: Patients 45 years of age or older who provided written informed consent were eligible to participate if they had been hospitalized for an acute coronary syndrome characterized by elevated cardiac biomarkers, with symptoms of acute myocardial ischemia, ischemic electrocardiographic abnormalities that were new or presumed to be new, or loss of viable myocardium on imaging. Patients without elevated cardiac biomarkers were eligible to participate if symptoms of acute myocardial ischemia were accompanied by electrocardiographic changes that were new or presumed to be new and by additional evidence of obstructive coronary disease. […] However, no specific statin agent or dose was specified, and patients were not excluded if their LDL cholesterol level remained above 100 mg per deciliter. There were no exclusions on the basis of patients' HDL cholesterol level. […] The patients began a single-blind placebo-based run-in period of approximately 4 to 6 weeks to allow for patients to stabilize and for completion of any planned revascularization procedures. At the end of the run-in period, patients in stable condition were randomized in a 1:1 ratio to 600 mg of dalcetrapib or placebo on top of evidence-based medical care for acute cardiovascular syndrome (“ACS”). The descriptive statistics and analyses were performed using SAS 9.4 software. […]

[2] = system: patients of the dal-OUTCOMES trial; assay: Cox proportional hazards regression of dalcetrapib treatment arm for association with new onset diabetes
Method: The effect of dalcetrapib on whole-blood HbA1c levels irrespective of genotype and the impact of dalcetrapib on risk of new onset diabetes were retrospectively assessed in patients of the dal-OUTCOMES trial. The descriptive statistics and analyses were performed using SAS 9.4 software. Diabetes at baseline was defined based on at least one of the following patient criteria: (1) diagnosis of diabetics at baseline in the dal-OUTCOMES trial; (2) whole-blood HbA1c level>=6.5% at baseline; (3) fasting glucose level>=7.0 mmol/L at baseline; and (4) use of diabetes medication at or before baseline. New onset diabetes was defined in non-diabetic patients at baseline based on at least one of the following patient criteria: (1) adverse event (AE) preferred terms “type 2 diabetes mellitus” OR “diabetes mellitus” from the AE file that occurred after randomization; (2) use of diabetes medication that was initiated after randomization; (2) at least one whole-blood HbA1c measurement of >=6.5% after randomization; and (4) at least one fasting glucose measurement of >=126 mg/dl or >=7.0 mmol/L after randomization. Cox proportional hazards regression of dalcetrapib treatment arm for association with new onset diabetes was assessed. There were 598 (14%) new onset diabetes cases in the 4173 non-diabetics at baseline.

[3] = system: patients enrolled in the dal-OUTCOMES trial; assay: Cox proportional hazards regression of SNP rs1967309 for association with cardiovascular events per treatment arm (dal-OUTCOMES); settings: for Event (cardiovascular events): 600 mg dalcetrapib arm; for HR (rs1967309, cardiovascular events) / β genetic (rs1967309, cardiovascular events): dalcetrapib arm
Text: Inclusion Criteria: Patients 45 years of age or older who provided written informed consent were eligible to participate if they had been hospitalized for an acute coronary syndrome characterized by elevated cardiac biomarkers, with symptoms of acute myocardial ischemia, ischemic electrocardiographic abnormalities that were new or presumed to be new, or loss of viable myocardium on imaging. Patients without elevated cardiac biomarkers were eligible to participate if symptoms of acute myocardial ischemia were accompanied by electrocardiographic changes that were new or presumed to be new and by additional evidence of obstructive coronary disease. […] However, no specific statin agent or dose was specified, and patients were not excluded if their LDL cholesterol level remained above 100 mg per deciliter. There were no exclusions on the basis of patients' HDL cholesterol level. […] The patients began a single-blind placebo-based run-in period of approximately 4 to 6 weeks to allow for patients to stabilize and for completion of any planned revascularization procedures. At the end of the run-in period, patients in stable condition were randomized in a 1:1 ratio to 600 mg of dalcetrapib or placebo on top of evidence-based medical care for acute cardiovascular syndrome (“ACS”). The descriptive statistics and analyses were performed using SAS 9.4 software.
Cox proportional hazards regression of single nucleotide polymorphism (“SNP”) rs1967309 was conducted for association with cardiovascular events in each treatment arm and in patients with a diagnosis of diabetic at baseline in the dal-OUTCOMES trial and in non-diabetic patients separately without controlling for any covariate, as shown in Table 4. Cox proportional hazards regression of SNP rs1967309 was conducted for association with cardiovascular events in each treatment arm and in diabetic and non-diabetic patients separately controlling for age and sex, as shown in Table 5.

[4] = system: uncontrolled diabetic patients of the dal-OUTCOMES trial; assay: Effect of dalcetrapib on whole-blood HbA1c in uncontrolled diabetics
Method: The effect of dalcetrapib in uncontrolled diabetics defined once as HbA1c>7% at baseline or once as >7.5% at baseline was retrospectively assessed in patients of the dal-OUTCOMES trial. The descriptive statistics and analyses were performed using SAS 9.4 software. Two populations of uncontrolled diabetics at baseline were defined: patients having a whole-blood HbA1c level of >7 (n=437) and patients having a whole-blood HbA1c level of >7.5 (n=280).

[5] = system: patients enrolled in the dal-OUTCOMES trial; assay: Repeated measures mixed model regression of treatment arm for fasting plasma glucose and whole-blood HbA1c per genotype and diabetes status; settings: all rs1967309 genotypes, diabetic and non-diabetic, with and without age and sex; except AG diabetic patients
Text: The effect of ADCY9 rs1967309 genotypes on patient HbA1C and glucose levels was retrospectively assessed in patients enrolled in the dal-OUTCOMES trial.
Inclusion Criteria: Patients 45 years of age or older who provided written informed consent were eligible to participate if they had been hospitalized for an acute coronary syndrome characterized by elevated cardiac biomarkers, with symptoms of acute myocardial ischemia, ischemic electrocardiographic abnormalities that were new or presumed to be new, or loss of viable myocardium on imaging. Patients without elevated cardiac biomarkers were eligible to participate if symptoms of acute myocardial ischemia were accompanied by electrocardiographic changes that were new or presumed to be new and by additional evidence of obstructive coronary disease. […] However, no specific statin agent or dose was specified, and patients were not excluded if their LDL cholesterol level remained above 100 mg per deciliter. There were no exclusions on the basis of patients' HDL cholesterol level. […] The patients began a single-blind placebo-based run-in period of approximately 4 to 6 weeks to allow for patients to stabilize and for completion of any planned revascularization procedures. […]

[6] = rs1967309 AA, controlling for age and sex
[7] = rs1967309 AG, controlling for age and sex
[8] = rs1967309 GG, controlling for age and sex
[9] = diabetic patients, controlling for age and sex
[10] = diabetic patients, no covariate
[11] = non-diabetic patients, controlling for age and sex
[12] = non-diabetic patients, no covariate

For `CCC(CC)CC1(C(=O)Nc2ccccc2SC(=O)C(C)C)CCCCC1` [dalcetrapib], the “effect of dalcetrapib on cardiovascular events” value ([1]; AA patients with diabetes) was “cardiovascular protective effect”, the “Event (cardiovascular events)” value ([1]; rs1967309 AA, Table 6) was 37 and the “Event (cardiovascular events)” value ([1]; rs1967309 AA, Table 7) was 37. The “HR (diabetes, cardiovascular events)” value [1, 6] was 1.6850, the “β diabetes (cardiovascular events)” value [1, 6] was 0.5218 and the “HR (diabetes, cardiovascular events)” value ([1]; rs1967309 AA, no covariate) was 1.4330. For the same compound, the “β diabetes (cardiovascular events)” value ([1]; rs1967309 AA, no covariate) was 0.3597, the “Event (cardiovascular events)” value ([1]; rs1967309 AG, Table 6) was 176 and the “Event (cardiovascular events)” value ([1]; rs1967309 AG, Table 7) was 176. For the same compound, the “HR (diabetes, cardiovascular events)” value [1, 7] was 2.2217, the “β diabetes (cardiovascular events)” value [1, 7] was 0.7983 and the “HR (diabetes, cardiovascular events)” value ([1]; rs1967309 AG, no covariate) was 2.3398. The “β diabetes (cardiovascular events)” value ([1]; rs1967309 AG, no covariate) was 0.8501, the “Event (cardiovascular events)” value ([1]; rs1967309 GG, Table 6) was 176 and the “Event (cardiovascular events)” value ([1]; rs1967309 GG, Table 7) was 176. The “HR (diabetes, cardiovascular events)” value [1, 8] was 1.6913, the “β diabetes (cardiovascular events)” value [1, 8] was 0.5255 and the “HR (diabetes, cardiovascular events)” value ([1]; rs1967309 GG, no covariate) was 1.7772. The “β diabetes (cardiovascular events)” value ([1]; rs1967309 GG, no covariate) was 0.5750, the “effect of dalcetrapib on new onset diabetes” value ([2]; non-diabetic patients at baseline) was “trend for a protective effect” and the “association of new onset diabetes with dalcetrapib treatment arm” value ([2]; non-diabetic patients at baseline, all combined and each genotype, P<0.05, with and without covariates) was “not found to be significantly associated”. For the same compound, the “association with treatment arm” value ([2]; patients with diabetes at baseline and AA genotype, with and without covariates, patients with events n=27) was “significant association with treatment arm”, the “SNP rs1967309 as predictor of cardiovascular events in the dalcetrapib arm” value ([3]; diabetic and non-diabetic patients, with and without covariates, significance level of 5%) was “predictive of cardiovascular events” and the “Event (cardiovascular events)” value ([3]; diabetic patients, Table 4) was 134. The “Event (cardiovascular events)” value ([3]; diabetic patients, Table 5) was 134, the “HR (rs1967309, cardiovascular events)” value [3, 9] was 0.6631 and the “β genetic (rs1967309, cardiovascular events)” value (shortened to “β genetic”) [3, 9] was −0.4108. The “HR (rs1967309, cardiovascular events)” value [3, 10] was 0.6597, the “β genetic” value [3, 10] was −0.4159 and the “Event (cardiovascular events)” value ([3]; non-diabetic patients, Table 4) was 255. The “Event (cardiovascular events)” value ([3]; non-diabetic patients, Table 5) was 255, the “HR (rs1967309, cardiovascular events)” value [3, 11] was 0.6366 and the “β genetic” value [3, 11] was −0.4516. The “HR (rs1967309, cardiovascular events)” value [3, 12] was 0.6400, the “β genetic” value [3, 12] was −0.4462 and the “association of treatment arm (dalcetrapib versus placebo) with whole-blood HbA1c at M06” value ([4]; HbA1c >7 at baseline, genotype rs1967309/AA, without adjustment for covariates, significance level 5%) was “associated with a decrease in whole-blood HbA1c”. The “repeated measures analysis, natural logarithm of HbA1C at 6, 12 and 24 months” value ([4]; uncontrolled diabetic patients, mixed regression models) was “confirmed by repeated measures analysis”, the “mean ln(HbA1c) in the dalcetrapib treatment arm” value ([4]; uncontrolled diabetics, versus placebo arm) was “lower than in the placebo arm” and the “significance of dalcetrapib treatment arm for outcome HbA1c” value [5] was “significant”.
